{"source": "patent US20240180898A1", "about": "“USE OF AMINOTHIAZOLE DERIVATIVE IN TREATMENT OF IMMUNE INFLAMMATION” (INNAMUNE PHARMACEUTICAL CO. LTD., priority 2021, published 2024)", "key": {"[1]": {"test_system": "middle cerebral artery occlusion (MCAO) model", "assay": "reperfusion injury after acute cerebral infarction (MCAO model)", "format": "in vivo, mouse", "details": "15 mg/kg intravenously, 1 hour ischemia, 24 hours reperfusion", "experimental": "Preparation and grouping of a mouse model of reperfusion injury after acute cerebral infarction: Model preparation: Adult male C57BL/6 mice (8-10 weeks old, weighing 22-25 g) were fasted for 8 hours before surgery and allowed to drink freely. Intraperitoneal injection of 1% pentobarbital sodium solution for anesthesia. […]"}, "[2]": {"assay": "drug concentration in blood after skin ointment on maximum body area", "format": "in vivo", "details": "skin ointments applied to the maximum body area"}, "[3]": {"test_system": "macrophages derived from mouse bone marrow", "assay": "LPS-induced secretion of inflammatory factors from macrophages, ELISA of supernatant", "format": "cell-based", "details": "30 umol/L 2 hours before LPS 500 ng/ml for 24 hours; FIG. 2", "experimental": "macrophage grouping (in vitro):\nCultivate macrophages derived from mouse bone marrow in vitro.\nThe experiment was divided into 8 groups, namely: • Control group (untreated mouse bone marrow-derived macrophages), • LPS group (500 ng/ml LPS stimulated macrophages for 24 hours), • LPS+TJ-2 group (2 hours before LPS stimulation, administer 30 umol/L TJ-2 drug stimulation), • LPS+TJ-5 group (2 hours before LPS stimulation, administer 30 umol/L TJ-5 drug stimulation), • LPS+TJ-8 group (2 hours before LPS stimulation, administer 30 umol/L TJ-8 drug stimulation), • LPS+TJ-9 group (2 hours before LPS stimulation, administer 30 umol/L TJ-9 drug stimulation), • LPS+TJ-11 group (2 hours before LPS stimulation, administer 30 umol/L TJ-11 drug stimulation), • and LPS+TJ-12 group (2 hours before LPS stimulation, administer 30 umol/L TJ-12 drug stimulation).\nAfter 24 hours of LPS stimulation, the cell culture supernatant was removed and ELISA was performed to detect the concentration of various inflammatory factors in the supernatant."}, "CSDS depression model": {"test_system": "CSDS depression model", "assay": "Frustrative Depression (CSDS) model", "format": "in vivo, mouse", "details": "C57BL/6J mice", "experimental": "Male C57BL/6J mice (6-7 weeks old, 18-20 g weight) and male CD-1 mice ([…] old) were used to create a model of Frustrative Depression (CSDS). C57BL/6J mice were attacked by different CD-1 […] for 10 minutes every day for 10 consecutive days. At night, the two types of mice were kept in the same cage separated by a perforated transparent glass to maintain the pressure of the attack."}, "[4]": {"test_system": "Balb/c mouse psoriasis model", "assay": "mouse psoriasis model (imiquimod cream)", "format": "in vivo", "from_the_text": "Preparation and grouping of mouse […] model:\nModel preparation: Male Balb/c mice aged 6-8 weeks were shaved on the back skin and coated with 5% imiquimod (IMQ) cream once a day for 7 consecutive days.\nThe experiment was divided into three groups, namely: • Psoriasis control group (without any treatment, psoriasis model group), TJ-M2010-5 systemic medication group (intraperitoneal injection), and TJ-M2010-5 local medication group (ointment group). The specific handling method is as follows: • TJ-M2010-5 systemic medication group: A Balb/c mouse psoriasis model was taken and TJ- M2010-5 was injected intraperitoneally at a dose of 50 mg/kg, once a day, for 2 consecutive weeks. • TJ-M2010-5 local medication group: A Balb/c mouse psoriasis model was taken, and 1% TJ-M2010-5 ointment was applied on the skin, once a day, for 2 consecutive weeks."}, "high-fat diet obese mice": {"test_system": "high-fat diet obese mice", "assay": "high-fat diet obesity and fatty liver model", "format": "in vivo, mouse", "from_the_text": "Feed B6 mice with a high-fat diet (HFD) to create an obesity model. Divide the animals into three groups: normal diet group, high-fat diet group, and high-fat diet group with INNA1605 (TJ-M2010-5) added at the same time. Conduct three control groups to measure body weight, inguinal and epididymal fat size, liver size, and examine the liver and various adipose tissues of each group."}, "[5]": {"assay": "preclinical safety assessment, intravenous injection", "format": "in vivo", "experimental": "Direct intravenous injection of 30 mg/kg or more will cause elevated liver enzyme toxicity, and it has no toxic effect at 10 mg/kg."}, "heart grafts": {"test_system": "heart grafts", "assay": "allogeneic heart transplantation, Balb/c to B6", "format": "in vivo, mouse", "from_the_text": "The paired mice for transplantation: The donor mouse is a balb/c mouse; The recipient mouse is B6 mouse. Transplant the donor's skin or heart separately to the recipient. After skin transplantation, INNA1605 (TJ-M2010-5) was continuously used for 2 weeks and then stopped. About 38% of the transplanted skin was permanently non-rejection. After administering TJ-M2010-5 for two weeks after allogeneic heart transplantation, 60% of the heart grafts were permanently not rejected. In these surviving recipient mice (non-rejection), the hearts of the same donor mice were transplanted for a second time without any treatment. The result was 100% non-rejection of the heart, confirming the development of immune tolerance against the same antigen (see FIGS. 34 and 35)."}}, "data": [{"compound": "O=C(CCN1CCN(Cc2ccccc2)CC1)Nc1nc(-c2ccccc2)cs1", "note": "[INNA1605, 3-(4-benzylpiperazine-1-yl)-N-(4-phenylthiazole-2-yl) propionamide]", "values": [{"measurement": "reduction of infarct volume of acute cerebral infarction", "setting": "[1]", "result": 80, "unit": "%"}, {"measurement": "drug concentration in the blood", "setting": "[2]", "result": "2 to 3", "unit": "ng/mL"}, {"measurement": "inhibitory effect on inflammatory factors compared among the compounds", "setting": "[3]", "result": "have the same inhibitory effect on inflammatory factors"}, {"measurement": "secretion of various inflammatory factors in macrophages (IL-1β, Il-6, TNF-α, IL-18, IL-17)", "setting": "[3]", "result": "can inhibit the secretion of various inflammatory factors in macrophages"}, {"measurement": "induced depressive behavior and neuroinflammation in the brain", "setting": "CSDS depression model", "result": "significantly improves induced depressive behavior and neuroinflammation in the brain"}, {"measurement": "therapeutic effect, local medication", "setting": "[4]; 1% ointment on the skin once a day, 2 weeks", "result": "excellent therapeutic effects, with a significant improvement after 7 days and a cure effect achieved after 14 days"}, {"measurement": "infiltration and proliferation of mast cells", "setting": "[4]; H&E and C-kit (CD117) staining", "result": "inhibits the infiltration and proliferation of mast cells"}, {"measurement": "abnormally thickened stratum corneum", "setting": "[4]; after treatment", "result": "can basically restore normal tissue structure after treatment"}, {"measurement": "inflammatory cells in the skin", "setting": "[4]; both treatments (systemic and local)", "result": "significantly reduce inflammatory cells in the skin"}, {"measurement": "imbalance of spleen T cells and their subsets", "setting": "[4]; flow cytometry", "result": "correct the imbalance of spleen T cells and their subsets"}, {"measurement": "therapeutic effect, systemic medication", "setting": "[4]; intraperitoneal 50 mg/kg once a day, 2 weeks", "result": "excellent therapeutic effects, with a significant improvement after 7 days and a cure effect achieved after 14 days"}, {"measurement": "excessive keratinization and proliferation of skin keratinocytes", "setting": "[4]; mouse, in vivo", "result": "inhibit excessive keratinization and proliferation of skin keratinocytes"}, {"measurement": "expression of CD80", "setting": "[4]; mouse, in vivo", "result": "significantly reduces the expression of CD80"}, {"measurement": "expression of intradermal lymphokines (IL-1beta, IL-6, IL-17a, TNF-alpha, MyD88 mRNA, Cxcl2 mRNA)", "setting": "[4]; mouse, in vivo", "result": "inhibits the expression of intradermal lymphokines"}, {"measurement": "skin thickness", "setting": "[4]; mouse, in vivo", "result": "significant thinning of skin thickness"}, {"measurement": "splenomegaly", "setting": "[4]; mouse, in vivo", "result": "can improve splenomegaly"}, {"measurement": "MAPK signaling pathway", "setting": "[4]; psoriasis model skin", "result": "inhibits the MAPK signaling pathway"}, {"measurement": "synthesis and secretion of inflammatory factors", "setting": "[4]; skin", "result": "inhibiting the synthesis and secretion of inflammatory factors"}, {"measurement": "immune cell infiltration and activation (macrophages, neutrophils, mast cells)", "setting": "[4]; skin tissue", "result": "a reduction in immune cell infiltration and activation"}, {"measurement": "adipose tissue, liver, and body weight", "setting": "high-fat diet obese mice; B6 mice, added with high-fat diet, FIG. 37", "result": "significantly smaller than those of the obese group and close to those of normal mice"}, {"measurement": "weight of obese mice fed with high-fat diet", "setting": "high-fat diet obese mice; FIG. 25", "result": "significantly reduced the weight of high-fat diet obese mice"}, {"measurement": "lipid droplets in the adipose tissue and liver", "setting": "high-fat diet obese mice; pathological examination, FIG. 38", "result": "significantly smaller than those of the obese group, and were similar to normal mice"}, {"measurement": "dose causing elevated liver enzyme toxicity", "setting": "[5]; direct intravenous injection", "result": "≥ 30", "unit": "mg/kg"}, {"measurement": "dose with no toxic effect", "setting": "[5]; direct intravenous injection", "result": 10, "unit": "mg/kg"}, {"measurement": "toxicity to the body", "setting": "[5]; preclinical trial results", "result": "low toxicity to the body"}, {"measurement": "heart grafts permanently not rejected", "setting": "heart grafts; administered for two weeks", "result": 60, "unit": "%"}, {"measurement": "non-rejection of second heart of the same donor mice", "setting": "heart grafts; surviving recipient mice, second transplant without any treatment", "result": 100, "unit": "%"}]}]}
